Like-named read-outs stand apart in the source and are kept apart here.
What was measured:
[1] = Evaluation of blood-brain barrier (BBB) after peritoneal injection in rats; format: in vivo; conditions: SD rats, intraperitoneal 10 mg/kg; for Kp at 15 min / Kp at 60 min / Kp at 120 min: Sprague-Dawley, rat
Experimental: The analysis method was the same as example B.
The experiment was divided into three groups: 15 min group, 1 h group and 2 h group. After overnight fasting for 12 hours, SD rats were administered by intraperitoneal injection with the compound of the invention in the form of 5% DMSO+5% Kolliphor HS15+90% Saline solution at a dose of 10 mg/kg. Blood, cerebrospinal fluid and brain tissue were collected at 15 minutes, 1 hour and 2 hours respectively after administration. Blood samples were centrifuged at 3,000 or 4,000 rpm for 10 minutes. The plasma solution was collected and kept at −20° C. or −70° C. The cerebrospinal fluid was processed using a protein precipitation method. A certain volume of cerebrospinal fluid sample were precisely absorbed and precipitated by adding 5 times acetonitrile solution containing internal standard. The mixture was mixed well by vortexing, and then centrifuged for 2 minutes at 12,000 rpm at 4° C., the supernatant was kept at −80° C. Brain tissue was homogenized with 2 times methanol solution, and centrifuged to get the supernatant, the supernatant were precipitated by adding 5 times acetonitrile solution containing internal standard.
The mixture was mixed well by vortexing, and then centrifuged for 2 minutes at 12,000 rpm at 4° C., the supernatant was kept at −80° C. LC-MS/MS method was used to detect the concentration of target compounds, BBB permeability was calculated and statistical analysis was carried out.

[2] = biological target: T1, Human recombinant monoamine oxidase B (Homo sapiens, UniProt P27338); assay: Inhibitory effect on the activity of monoamine oxidase B; format: biochemical; conditions: human recombinant MAO-B, substrate benzylamine hydrochloride
T1 construct: host or cells: Sf9 cells
T1 sequence (P27338 1-520): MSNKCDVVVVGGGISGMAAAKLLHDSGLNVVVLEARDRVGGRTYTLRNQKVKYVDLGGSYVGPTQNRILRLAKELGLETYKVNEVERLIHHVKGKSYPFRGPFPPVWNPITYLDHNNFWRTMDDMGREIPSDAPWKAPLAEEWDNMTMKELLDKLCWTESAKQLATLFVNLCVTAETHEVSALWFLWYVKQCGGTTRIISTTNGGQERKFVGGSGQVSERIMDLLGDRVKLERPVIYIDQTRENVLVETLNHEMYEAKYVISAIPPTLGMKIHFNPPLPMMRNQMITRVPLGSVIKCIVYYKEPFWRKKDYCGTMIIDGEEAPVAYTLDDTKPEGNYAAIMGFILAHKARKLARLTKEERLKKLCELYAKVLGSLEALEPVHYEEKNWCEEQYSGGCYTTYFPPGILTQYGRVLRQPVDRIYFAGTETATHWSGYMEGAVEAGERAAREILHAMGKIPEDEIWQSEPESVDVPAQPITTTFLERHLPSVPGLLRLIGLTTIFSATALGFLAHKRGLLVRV
Experimental: Human recombinant monoamine oxidase B expressed in Sf9 cells was used in the test system. In the experiment, firstly, the recombinant monoamine oxidase B was dissolved in the pre-configured HEPES buffer (0.8% NaCl, 0.037% KCl, 0.0135% Na2HPO4.2H2O, 0.1% Glucan, 0.5% HEPES, pH=7.0) at a concentration of 0.3 μg/μL. To each well of a 384-well plate was added 10 μL of monoamine oxidase B solution, and the test compound with different concentrations (the final concentration of DMSO was 1%) (10 gradient concentrations were 10 mM, 1 mM, 100 μM, 10 μM, 1 μM, 100 nM, 10 nM, 1 nM, 0.1 nM, 0.01 nM) were added into the wells respectively. The standard reference compound was R-(−)-Deprenyl, the plate was incubated at room temperature for 15 min. Then, each well filled with 10 μL substrate solution (Benzylamine hydrochloride, 1 mM) was incubated at room temperature for 60 min. Then 20 μL of fluorescein detection reagent was added to each well, which was fully blended and incubated at room temperature for 20 minutes to produce stable fluorescence signal. The fluorescence signal was read by fluorescein labeling instrument, and the value was expressed by relative light intensity (RLU). The inhibitory rate on enzyme activity was calculated according to the experimental results, the calculated formula: Inh %=(Max−Signal)/(Max−Min)*100, wherein Max was the detected value at the maximum concentration of the sample, Min was the detected value at the minimum concentration of the sample, and Signal was the detected value at the current concentration of the sample.
The standard curve was obtained through the series concentration by experimental test to calculate the IC50.

[3] = brain, 15 min, read-out: T/P Ratio Brain (brain tissue)
[4] = brain, 60 min, read-out: T/P Ratio Brain (brain tissue)
[5] = brain, 120 min, read-out: T/P Ratio Brain (brain tissue)
[6] = cerebrospinal fluid, 15 min, read-out: T/P Ratio CSF (cerebrospinal fluid)
[7] = cerebrospinal fluid, 60 min, read-out: T/P Ratio CSF (cerebrospinal fluid)
[8] = cerebrospinal fluid, 120 min, read-out: T/P Ratio CSF (cerebrospinal fluid)

Row | Structure (SMILES) | Conc. Brain (brain tissue) ([1]; 15 min) | Conc. CSF (cerebrospinal fluid) ([1]; 15 min) | Conc. Plasm (plasma) ([1]; 15 min) | Conc. Brain (brain tissue) ([1]; 60 min) | Conc. CSF (cerebrospinal fluid) ([1]; 60 min) | Conc. Plasm (plasma) ([1]; 60 min) | Conc. Brain (brain tissue) ([1]; 120 min) | Conc. CSF (cerebrospinal fluid) ([1]; 120 min) | Conc. Plasm (plasma) ([1]; 120 min) | Kp at 15 min [1, 3] | Kp at 60 min [1, 4] | Kp at 120 min [1, 5] | Kp at 15 min [1, 6] | Kp at 60 min [1, 7] | Kp at 120 min [1, 8] | IC50 [2] [nM]
1 | NC(=O)[C@@H]1C[C@H](F)CN1Cc1ccc(OCc2cccc(F)c2)cc1 [Example 1, (2S,4S)-4-fluoro-1-(4-(3-fluorobenzyloxy)benzyl)pyrrolidine-2-formamide] | 10243.33 ng/g or ng/ml | 147.67 ng/g or ng/ml | 5203.33 ng/g or ng/ml | 9273.33 ng/g or ng/ml | 61.9 ng/g or ng/ml | 2073.33 ng/g or ng/ml | 2890 ng/g or ng/ml | 34.4 ng/g or ng/ml | 864.33 ng/g or ng/ml | 1.97 | 4.47 | 3.34 | 0.028 | 0.03 | 0.04 | 19
2 | NC(=O)[C@@H]1C[C@H](F)CN1Cc1ccc(OCc2cccc(F)c2)cc1F [Example 3, (2S,4S)-4-fluoro-1-(2-fluoro-4-(3-fluorobenzyloxy)benzyl)pyrrolidine-2-formamide] | 8610 ng/g or ng/ml | 56.67 ng/g or ng/ml | 3496.67 ng/g or ng/ml | 5253.33 ng/g or ng/ml | 39.77 ng/g or ng/ml | 1930 ng/g or ng/ml | 1576.67 ng/g or ng/ml | 13.05 ng/g or ng/ml | 686.67 ng/g or ng/ml | 2.46 | 2.72 | 2.3 | 0.016 | 0.021 | 0.019 | 30
